Experimental data: patent US10301317B2, “Inhibitors of ERK and methods of use” (Kura Oncology, Inc., priority 2013, dated 2019)

Each compound was assayed on phospho-p90 RSK (RSK1 Thr359/Ser363) in A375 (Braf V600E) cells (assay: Phospho-p90 RSK ELISA using A375 (Braf V600E) cells). Details: Homo sapiens, A-375, 2 hours compound treatment, read-out: Cellular Phospho-p90RSK IC50.
Assay type: cell-based
Experimental: In preparation for the assay, an ELISA plate with the pre-coated goat anti-mouse antibody (Thermo Scientific) was treated with a mouse anti-human RSK1 antibody (monoclonal, Invitrogen) at 1:800 dilution (150 ng/well) in PBS, and the plate was placed on a plate shaker at 4° C. overnight. […] After two […] of the compound treatment, the supernatant was removed from the cell plate, and cells were lysed in 100 μl per well of cell lysis buffer (Cell Signaling Technologies) containing phosphatase and protease inhibitors (Cell Signaling Technologies) on a plate shaker at 4° C. for 20 minutes. The ELISA plate was washed four times with ELISA wash buffer (Thermo Scientific) prior to addition of 100 μL cell lysate. The lysate was incubated on the ELISA plate with gentle shaking at room temperature for 2 hours. The contents of the wells were removed, and the ELISA plate was washed four times with wash buffer, and incubated with 100 μL per well of anti-phospho-RSK1 (Thr359/Ser363) rabbit monoclonal antibody (Millipore) at dilution of 1:1000 in StartingBlock buffer (Thermo Scientific) on a plate shaker at room temperature for 1 hour. The contents of the wells were removed, the ELISA plate was washed four times with wash buffer, and was incubated with 100 μL per well of goat anti-rabbit HRP (Thermo Scientific) at dilution of 1:3000 in StartingBlock buffer (Thermo Scientific) on a plate shaker at room temperature for 1 hour. The contents of the wells were removed, the ELISA plate was washed four times with wash buffer, and then incubated with 100 μL per well of TMB substrate solution (Thermo Scientific) on a plate shaker at room temperature for 20 minutes. Finally, 100 μL of TMB stop solution (Thermo Scientific) was added to each well and the absorbance is measured at 450 nm on a Tecan plate reader.

Cc1cc(-c2n[nH]c3cc4c(cc23)CN(CCNCc2ccc(F)cc2)C(=O)N4)ccn1 [Example 175] and Cc1cc(-c2n[nH]c3cc4c(cc23)CN(CCNCc2cccc(Cl)c2)C(=O)N4)ccn1 [Example 176] fall in the same range of IC50: 250 to 1000 nM for the first, 250 to 1000 nM for the second.

First: Cc1cc(-c2n[nH]c3cc4c(cc23)CN([C@@H]2CCN(CCC(C)C)C2)C(=O)N4)ccn1 [Example 207]
Second: Cc1cc(-c2n[nH]c3cc4c(cc23)CN([C@@H]2CCN(C(C)C)C2)C(=O)N4)ccn1 [Example 268]
The IC50 of the first is lower: 250 to 1000 nM for the first, greater than 1000 nM for the second.

O=C1Nc2cc3[nH]nc(C4CC4)c3cc2CN1Cc1ccc(F)c(Cl)c1 [Example 42] and CN(C)CCN1CCN(c2n[nH]c3cc4c(cc23)CN(Cc2ccc(F)c(Cl)c2)C(=O)N4)CC1 [Example 260] cannot be ordered by IC50: greater than 1000 nM for the first, greater than 1000 nM for the second.

Compared with Cc1cc(-c2n[nH]c3cc4[nH]c(=O)c(C(C)C5CCCCC5)cc4cc23)ccn1 (stereo not drawn) [Example 160], Cc1cc(-c2n[nH]c3cc4[nH]c(=O)c(CC5CCCCC5)cc4cc23)ccn1 [Example 266] is lower in IC50: greater than 1000 nM for the first, no more than 250 nM for the second. The second is the more potent here.

First: O=C1Nc2cc3[nH]nc(-c4ccnnc4)c3cc2CN1Cc1cccc(C(F)(F)F)c1 [Example 124]
Second: N#Cc1cccc(CN2Cc3cc4c(-c5ccnnc5)n[nH]c4cc3NC2=O)c1 [Example 128]
The IC50 of the first is lower: 250 to 1000 nM for the first, greater than 1000 nM for the second. The first is the more potent here.

Cc1cc(-c2n[nH]c3cc4c(cc23)CN([C@@H]2CCCN(C3CCCCC3)C2)C(=O)N4)ccn1 [Example 194] and Cc1cc(-c2n[nH]c3cc4c(cc23)CN([C@@H]2CCCN(C3CCCC3)C2)C(=O)N4)ccn1 [Example 215] fall in the same range of IC50: 250 to 1000 nM for the first, 250 to 1000 nM for the second.

Cc1cc(-c2n[nH]c3cc4c(cc23)CN(C2CN(CCc3ccccc3)C2)C(=O)N4)ccn1 [Example 192] and Cc1cc(-c2n[nH]c3cc4c(cc23)CN([C@@H]2CCCN(CCc3ccccc3)C2)C(=O)N4)ccn1 [Example 145] fall in the same range of IC50: 250 to 1000 nM for the first, 250 to 1000 nM for the second.

COc1ccc(-c2n[nH]c3cc4c(cc23)CN([C@@H]2CN(C)C[C@H]2c2ccccc2)C(=O)N4)cn1 (mixture of isomers) [Example 353] and COc1ncc(-c2n[nH]c3cc4c(cc23)CN([C@@H]2CN(CC(F)(F)F)C[C@H]2c2ccccc2)C(=O)N4)cn1 [Example 348] cannot be ordered by IC50: no more than 250 nM for the first, no more than 250 nM for the second.

Cc1cc(-c2n[nH]c3cc4c(cc23)CN(Cc2ccc(C(F)(F)F)cc2)C(=O)N4)cc(C)n1 [Example 233] and Cc1cc(-c2n[nH]c3cc4c(cc23)CN(Cc2nc(C)cs2)C(=O)N4)ccn1 [Example 246] cannot be ordered by IC50: no more than 250 nM for the first, no more than 250 nM for the second.

First: COc1ncc(-c2n[nH]c3cc4c(cc23)CN([C@@H]2CCCN(Cc3cccs3)C2)C(=O)N4)cn1 [Example 295]
Second: COc1ncc(-c2n[nH]c3cc4c(cc23)CN([C@H]2CCCN(Cc3ccccc3)C2)C(=O)N4)cn1 [Example 365]
The IC50 of the first is lower: no more than 250 nM for the first, greater than 1000 nM for the second.

O=C1Nc2cc3[nH]nc(-c4ccnnc4)c3cc2CN1Cc1ccc(F)cc1F [Example 114] and O=C1Nc2cc3[nH]nc(-c4ccnnc4)c3cc2CN1Cc1cc(F)cc(F)c1 [Example 127] fall in the same range of IC50: 250 to 1000 nM for the first, 250 to 1000 nM for the second.

COc1ccc(-c2n[nH]c3cc4c(cc23)CN(Cc2cccc(Cl)c2)C(=O)N4)cn1 [Example 75] and COc1ncc(-c2n[nH]c3cc4c(cc23)CN(CCc2cccc(Cl)c2)C(=O)N4)cn1 [Example 86] cannot be ordered by IC50: no more than 250 nM for the first, no more than 250 nM for the second.

First: Cc1cc(-c2n[nH]c3cc4c(cc23)CN(C2CN(CCC3CC3)C2)C(=O)N4)ccn1 [Example 189]
Second: Cc1cc(-c2n[nH]c3cc4c(cc23)CN([C@@H]2CCCN(CC3CC3)C2)C(=O)N4)ccn1 [Example 62]
The IC50 of the first is higher: greater than 1000 nM for the first, 250 to 1000 nM for the second. The second is the more potent here.

Compared with Cn1cc(-c2n[nH]c3cc4c(cc23)CN([C@@H]2CN(CC(F)(F)F)C[C@H]2c2ccccc2)C(=O)N4)ccc1=O [Example 346], Cn1nccc1-c1n[nH]c2cc3c(cc12)CN([C@@H]1CN(CC(F)(F)F)C[C@H]1c1ccccc1)C(=O)N3 [Example 350] is higher in IC50: no more than 250 nM for the first, greater than 1000 nM for the second.

COc1ncc(-c2n[nH]c3cc4[nH]c(=O)c(C(C)c5cccc(Cl)c5)cc4cc23)cn1 (stereo not drawn) [Example 129] and CC(c1ccccc1)c1cc2cc3c(-c4cnc(N)nc4)n[nH]c3cc2[nH]c1=O (stereo not drawn) [Example 334] cannot be ordered by IC50: 250 to 1000 nM for the first, no more than 250 nM for the second.

Compared with Cc1cc(-c2n[nH]c3cc4c(cc23)CN([C@@H]2CCCN(CCc3ccc(F)cc3)C2)C(=O)N4)ccn1 [Example 167], Cc1cc(-c2n[nH]c3cc4c(cc23)CN([C@@H]2CCCN(Cc3cccnc3C)C2)C(=O)N4)ccn1 [Example 170] is lower in IC50: greater than 1000 nM for the first, 250 to 1000 nM for the second.

First: Cn1nccc1-c1n[nH]c2cc3c(cc12)CN([C@@H]1CCN(CC(F)(F)F)C1)C(=O)N3 [Example 265]
Second: Cc1cc(-c2n[nH]c3cc4c(cc23)CN([C@H]2CCN(CC(F)(F)F)C2)C(=O)N4)ccn1 [Example 299]
The IC50 of the first is higher: greater than 1000 nM for the first, no more than 250 nM for the second.

Cc1cc(-c2n[nH]c3cc4c(cc23)CN([C@@H]2CN(C)C[C@H]2C(C)C)C(=O)N4)ccn1 (mixture of isomers) [Example 327] and Cc1cc(-c2n[nH]c3cc4c(cc23)CN([C@@H]2CN(CC(F)(F)F)C[C@H]2C(C)(C)C)C(=O)N4)ccn1 [Example 329] cannot be ordered by IC50: greater than 1000 nM for the first, greater than 1000 nM for the second.

Compared with Cc1cc(-c2n[nH]c3cc4c(cc23)CN([C@@H]2CCCN(Cc3cncnc3)C2)C(=O)N4)ccn1 [Example 166], Cc1cc(-c2n[nH]c3cc4c(cc23)CN([C@@H]2CCCN(Cc3cnccc3C)C2)C(=O)N4)ccn1 [Example 183] is lower in IC50: greater than 1000 nM for the first, 250 to 1000 nM for the second. The second is the more potent here.

O=C1Nc2cc3[nH]nc(-c4ccnnc4)c3cc2CN1[C@@H]1CCCN(Cc2c(F)cccc2F)C1 [Example 122] and COc1ncccc1CN1CCC[C@@H](N2Cc3cc4c(-c5ccnc(C)c5)n[nH]c4cc3NC2=O)C1 [Example 150] cannot be ordered by IC50: no more than 250 nM for the first, no more than 250 nM for the second.

Cc1cc(-c2n[nH]c3cc4c(cc23)CN([C@H]2CCN(CC(F)(F)F)C2)C(=O)N4)cc(C)n1 [Example 310] and COc1ncc(-c2n[nH]c3cc4c(cc23)CN([C@@H]2CCN(CC(F)(F)F)C2)C(=O)N4)cn1 [Example 276] cannot be ordered by IC50: 250 to 1000 nM for the first, no more than 250 nM for the second.

Cc1cc(-c2n[nH]c3cc4c(cc23)CN(C(C)c2nc(C)c(C)s2)C(=O)N4)ccn1 (stereo not drawn) [Example 286] and Cc1cc(-c2n[nH]c3cc4c(cc23)CN(C(C)CC(C)C)C(=O)N4)ccn1 (stereo not drawn) [Example 53] cannot be ordered by IC50: no more than 250 nM for the first, 250 to 1000 nM for the second.

Cc1ccc(-c2n[nH]c3cc4[nH]c(=O)c(C5CCCN(Cc6ccccc6)C5)cc4cc23)cn1 (stereo not drawn) [Example 373] and Cc1cc(-c2n[nH]c3cc4[nH]c(=O)c(Cc5ccccc5)cc4cc23)ccn1 [Example 6] cannot be ordered by IC50: 250 to 1000 nM for the first, no more than 250 nM for the second.

First: Cc1cc(-c2n[nH]c3cc4c(cc23)CN([C@@H]2CN(CCC(F)(F)F)C[C@H]2c2ccccc2)C(=O)N4)ccn1 (mixture of isomers) [Example 387]
Second: Cc1cc(-c2n[nH]c3cc4c(cc23)CN([C@H]2CN(CC(F)F)C[C@@H]2c2ccccc2)C(=O)N4)ccn1 [Example 383]
The IC50 of the first is lower: 250 to 1000 nM for the first, greater than 1000 nM for the second. The first is the more potent here.

C[C@H](c1cccc(Cl)c1)N1Cc2cc3c(-c4ccnnc4)n[nH]c3cc2NC1=O [Example 111] and Cc1cc(-c2n[nH]c3cc4c(cc23)CN([C@@H]2CCCN(c3cccc(C)n3)C2)C(=O)N4)ccn1 [Example 238] cannot be ordered by IC50: 250 to 1000 nM for the first, no more than 250 nM for the second.

Compared with Cc1cc(-c2n[nH]c3cc4c(cc23)CN([C@@H]2CCCN(Cc3cc(C5CC5)on3)C2)C(=O)N4)ccn1 [Example 188], Cc1cc(-c2n[nH]c3cc4c(cc23)CN([C@@H]2CCN(CC3CCCC3)C2)C(=O)N4)ccn1 [Example 206] is higher in IC50: no more than 250 nM for the first, greater than 1000 nM for the second. The first is the more potent here.

Cc1cc(-c2n[nH]c3cc4c(cc23)CN([C@@H]2CN(CC(F)F)C[C@H]2c2ccccc2)C(=O)N4)cc(C)n1 [Example 386] and Cc1cc(-c2n[nH]c3cc4c(cc23)CN([C@@H]2CN(C3CCOCC3)C[C@H]2c2ccccc2)C(=O)N4)ccn1 (mixture of isomers) [Example 359] cannot be ordered by IC50: no more than 250 nM for the first, 250 to 1000 nM for the second.

Cc1cc(-c2n[nH]c3cc4c(cc23)CN(CCC2CCOCC2)C(=O)N4)ccn1 [Example 220] and Cc1cc(-c2n[nH]c3cc4c(cc23)CN([C@@H]2CN(CC(F)(F)F)C[C@H]2C2CC2)C(=O)N4)ccn1 (mixture of isomers) [Example 319] cannot be ordered by IC50: no more than 250 nM for the first, 250 to 1000 nM for the second.

Cc1cc(-c2n[nH]c3cc4[nH]c(=O)c(C(C)c5ccc(F)cc5F)cc4cc23)ccn1 (stereo not drawn) [Example 312] and CC(c1ccccc1)c1cc2cc3c(-c4ccnc(N)c4)n[nH]c3cc2[nH]c1=O (stereo not drawn) [Example 344] cannot be ordered by IC50: no more than 250 nM for the first, no more than 250 nM for the second.

Compared with Cc1cnccc1-c1n[nH]c2cc3[nH]c(=O)c(C(C)c4ccccc4)cc3cc12 (stereo not drawn) [Example 343], Cc1cc(-c2n[nH]c3cc4[nH]c(=O)c(C5CCCC5)cc4cc23)ccn1 [Example 289] is lower in IC50: greater than 1000 nM for the first, 250 to 1000 nM for the second.

Cc1cc(-c2n[nH]c3cc4c(cc23)CN([C@@H]2CCC[C@@H](NCc3ccccc3)C2)C(=O)N4)ccn1 [Example 313] and Cc1cc(-c2n[nH]c3cc4c(cc23)CN([C@@H]2CCCN(CC3CC5CCC3C5)C2)C(=O)N4)ccn1 (stereo partly drawn) [Example 142] cannot be ordered by IC50: 250 to 1000 nM for the first, no more than 250 nM for the second.

COc1ncc(-c2n[nH]c3cc4c(cc23)CN(Cc2cc(F)cc(F)c2)C(=O)N4)cn1 [Example 88] was tested, and the IC50 was no more than 250 nM.
